Measurements: patent US5192672A, “Method for oxidizing hydrocarbons with a hydroxylase from a methane monooxygenase” (Amoco Corporation, priority 1991, dated 1993)
Converted amounts (≈) assume the structure as drawn. Values belong to the compound of their own block, whether it stands above or below them.

Key:
[1] = target: T1, hydroxylase of methane monooxygenase (Methylosinus trichosporium, UniProt P27353); assay: Multiple turnover oxidation of hydrocarbon substrates using hydrogen peroxide; format: biochemical, Methylosinus trichosporium OB3b; settings: H2O2 coupled
T1 construct: The novel high activity hydroxylase of the present invention was obtained from Methylosinus trichosporium OB3b; endogenous in cells; host or cells: Methylosinus trichosporium OB3b; hydroxylase purified from the bacteria
T1 sequence (P27353 1-526): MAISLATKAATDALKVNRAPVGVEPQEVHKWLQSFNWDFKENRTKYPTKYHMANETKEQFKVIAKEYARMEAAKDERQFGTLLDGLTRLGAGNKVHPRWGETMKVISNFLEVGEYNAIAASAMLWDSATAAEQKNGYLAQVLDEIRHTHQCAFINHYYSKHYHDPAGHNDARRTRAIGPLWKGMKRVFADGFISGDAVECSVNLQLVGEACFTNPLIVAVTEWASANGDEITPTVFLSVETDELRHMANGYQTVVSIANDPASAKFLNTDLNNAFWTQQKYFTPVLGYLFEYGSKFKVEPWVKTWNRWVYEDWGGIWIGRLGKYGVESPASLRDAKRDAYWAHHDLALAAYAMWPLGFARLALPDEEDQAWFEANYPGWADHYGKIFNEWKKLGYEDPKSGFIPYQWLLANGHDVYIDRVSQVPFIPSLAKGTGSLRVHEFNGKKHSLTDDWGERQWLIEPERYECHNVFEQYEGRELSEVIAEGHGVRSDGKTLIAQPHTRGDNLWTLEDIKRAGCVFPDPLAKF
T1 sequence (P27354 1-394 partner): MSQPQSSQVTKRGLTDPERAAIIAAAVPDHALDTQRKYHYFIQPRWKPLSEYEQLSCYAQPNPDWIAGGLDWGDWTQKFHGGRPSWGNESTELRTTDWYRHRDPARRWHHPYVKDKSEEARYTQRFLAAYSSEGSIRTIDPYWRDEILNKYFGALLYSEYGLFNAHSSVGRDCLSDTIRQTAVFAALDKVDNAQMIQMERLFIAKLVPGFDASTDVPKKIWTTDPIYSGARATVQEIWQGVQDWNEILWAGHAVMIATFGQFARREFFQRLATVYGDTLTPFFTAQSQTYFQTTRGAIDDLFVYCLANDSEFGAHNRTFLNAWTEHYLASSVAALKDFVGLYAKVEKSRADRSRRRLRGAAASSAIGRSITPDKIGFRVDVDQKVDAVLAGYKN
T1 sequence (P27355 1-169 partner): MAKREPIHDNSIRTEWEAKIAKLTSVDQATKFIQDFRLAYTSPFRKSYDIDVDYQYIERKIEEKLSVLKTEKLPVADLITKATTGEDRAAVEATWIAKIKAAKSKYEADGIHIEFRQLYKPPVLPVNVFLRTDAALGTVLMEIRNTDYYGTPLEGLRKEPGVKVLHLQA
Description: . Substrates were injected into the respective reaction vials as follows: gaseous substrates (3 ml) were injected into the headspace of the reaction vial; liquid substrates (50 μls) were injected directly into the protein solution. The protein solution and substrate were allowed to equilibrate for five minutes in a water bath shaker at 30° C. Each reaction was initiated by injection of H2 O2 (20 μl of 1.0 MH2 O2 in water) to a concentration of about 100 mM H2 O2. After an appropriate period (2 minutes) a portion of the reaction mixture was removed, the reaction terminated, and the sample prepared for analysis.
Samples were analyzed for products as follows: The benzene, substituted benzenes and pyridine samples were analyzed by High Pressure Liquid Chromatography (HPLC). The reaction in each sample was quenched by addition of 2 volumes of ethanol or 3% trichloroacetic acid which caused precipitation of the hydroxylase. The samples were centrifuged for two minutes (10,800×g) and the precipitated hydroxylase removed. A portion of each supernatant was injected into a Beckman HPLC equipped with a reverse-phase column (C18 matrix) and UV detection capability.
All other samples were analyzed by gas chromatography. Except for the methane sample, all analyses were performed as follows: The reaction in each sample was quenched by addition of an equal volume chloroform (CHCl3) followed by vortexing for a brief period. The sample was centrifuged for two minutes (10,800×g) to separate the CHCl3 layer from the sample solution. A portion of the CHCl3 layer was injected into a Hewlett Packard 5890A gas chromatograph (100% methylsilicone column matrix) for analysis of the products.
For the methane sample, the reaction was quenched by addition of 0.1M acid to a pH of 2.9. The resulting aqueous phase was separated from the hydroxylase using a YM30 Centricon ultrafiltration unit. The filtrate was analyzed for methanol by gas chromatography.
Products resulting from the various substrates were identified by comparison with standard compounds.

[2] = target: T2, methane monooxygenase (Methylococcus capsulatus, UniProt P22869); settings: Table II, purified component from Methylococcus capsulatus (Bath); cited from earlier work
T2 construct: methane monooxygenases isolated from the Type I organism, Methylococcus capsulatus (Bath); host or cells: Methylococcus capsulatus (Bath)
T2 sequence (P22869 whole entry, looked up): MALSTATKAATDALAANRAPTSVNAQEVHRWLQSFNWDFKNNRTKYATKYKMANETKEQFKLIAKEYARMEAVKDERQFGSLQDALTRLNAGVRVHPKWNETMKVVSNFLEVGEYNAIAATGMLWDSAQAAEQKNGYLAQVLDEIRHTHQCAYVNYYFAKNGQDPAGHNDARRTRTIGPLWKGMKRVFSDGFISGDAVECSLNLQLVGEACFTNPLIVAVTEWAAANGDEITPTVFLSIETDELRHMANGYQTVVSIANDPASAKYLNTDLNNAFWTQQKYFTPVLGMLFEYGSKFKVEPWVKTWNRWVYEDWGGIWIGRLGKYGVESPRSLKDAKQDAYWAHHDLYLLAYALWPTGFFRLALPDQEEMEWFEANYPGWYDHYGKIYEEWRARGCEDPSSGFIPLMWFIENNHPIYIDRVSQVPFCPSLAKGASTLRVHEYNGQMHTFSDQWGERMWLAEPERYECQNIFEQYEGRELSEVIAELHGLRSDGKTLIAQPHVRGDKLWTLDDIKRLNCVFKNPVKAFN

[3] = 90 psi propane, up to two days, t-butyl peroxide; cited from earlier work
[4] = target: T3, complete methane monooxygenase (Methylosinus trichosporium, UniProt P27353); assay: Polarographic assay of methane monooxygenase activity with furan as substrate; format: biochemical, Methylosinus trichosporium OB3b
T3 construct: A soluble three-component methane monooxygenase from the Type II methanotroph Methylosinus trichosporium OB3b was purified to homogeneity; endogenous in cells; host or cells: Methylosinus trichosporium OB3b, grown on methane; components purified from cell-free extract
T3 sequence (P27353 1-526): T1 sequence (P27353 1-526)
T3 sequence (P27354 1-394 partner): T1 sequence (P27354 1-394 partner)
T3 sequence (P27355 1-169 partner): T1 sequence (P27355 1-169 partner)
Description: Enzyme Assays--Assays of bacterial cells were performed at 30° C. using cells harvested directly from the fermentor vessel. Methane oxidation was measured by gas chromatography by monitoring depletion of methane from the headspace of 30 ml reaction vials. Oxygen consumption was measured polarographically as described by Arciero et al. (J. Biol. Chem. 258, 14981-14991, 1983). The bacterial suspension was supplemented with 100 μM formaldehyde before gas chromatographic assays for conversion of propene to propene oxide in order to allow adequate regeneration of NADH by endogenous formaldehyde and formate dehydrogenases. Gas chromatographic and polarographic assays of the methane monooxygenase system were performed as described by Fox et al. (Biochem. Biophys. Res. Comm. 154, 165-170, 1988). Unless explicitly stated, the specific activity values reported for the enzyme components are those observed during the hydroxylation reaction in the presence of optimal concentrations of the other components of the methane monooxygenase. The optimal concentrations were determined by varying the concentration of one component relative to fixed concentrations of the other two components. In routine polarographic assays of methane monooxygenase activity, furan is an acceptable substrate with characteristics which facilitate the assay. […]

[5] = physchem; format: physicochemical; settings: water, 30° C.

Compound: reductase from Methylococcus capsulatus (Bath): literature reductase, Colby et al. 1979
Specific activity [2]: 6000

Compound: C [Methane]
Relative Distribution (Percent), product Methanol ([1]; about 100 mM H2O2, 2 minutes): 100%

Compound: Fe2 O(OAc)2 Cl2 (bipy)2
yield of 2-propanol from propane [3]: 8.8%

Compound: c1ccccc1 [Benzene]
Relative Distribution (Percent), product Phenol [1]: 100%

Compound: CCCC [Butane]
Relative Distribution (Percent), product 1-butanol [1]: 64%
Relative Distribution (Percent), product 2-butanol [1]: 36%

Compound: c1ccncc1 [Pyridine]
Relative Distribution (Percent), product Pyridine-N-oxide [1]: 100%

Compound: c1ccoc1 [furan]
Km ([4]; read-out: KM(app)): 0.02 mM
turnover number ([4]; relative to the hydroxylase): 7.6 s⁻¹
solubility [5]: 64 mM (≈ 4360 µg/mL)

Compound: O=[N+]([O-])c1ccccc1 [Nitrobenzene]
Relative Distribution (Percent), product m-Nitrophenol [1]: 53%
Relative Distribution (Percent), product o-Nitrophenol [1]: 5%
Relative Distribution (Percent), product p-Nitrophenol [1]: 42%

The next lines start with the values.

Relative Distribution (Percent), product 1-propanol [1]: 15%
Relative Distribution (Percent), product 2-propanol [1]: 85%
Compound: CCC [Propane]

Relative Distribution (Percent), product 2-methyl-1-butanol [1]: 25%
Relative Distribution (Percent), product 2-methyl-2-butanol [1]: 41%
Relative Distribution (Percent), product 3-methyl-1-butanol [1]: 11%
Relative Distribution (Percent), product 3-methyl-2-butanol [1]: 24%
Compound: CCC(C)C [Isopentane]

Relative Distribution (Percent), product 1-methylcyclobutanol [1]: 14%
Relative Distribution (Percent), product 3-methyl-3-buten-1-01 [1]: none detected
Relative Distribution (Percent), product Methylcyclopropylmethanol [1]: 86%
Compound: CC1(C)CC1 [1,1-dimethylcyclopropane]

Relative Distribution (Percent), product 2-methyl-1-propanol [1]: 61%
Relative Distribution (Percent), product 2-methyl-2-propanol [1]: 39%
Compound: CC(C)C [Isobutane]

Relative Distribution (Percent), product Ethanol [1]: 100%
Compound: CC [Ethane]

Relative Distribution (Percent), product Propylene Oxide [1]: 100%
Compound: C=CC [Propene]
